Literature values in patent publication US20120259154A1, “In Vivo Immunomagnetic Hyperthermia Platform for Any Cell or Virus Having a Target Surface Receptor” (IVDiagnostics, Inc., priority 2011, published 2012).

Conditions: following intravenous administration

**Q.** Which “t1/2 (clearance from the blood)” value does the source give for folate-FITC here?
**A.** 3.5 min
